# Earlier results in US12083078B2, “Parenteral cannabinoid formulations and uses thereof” (priority 2020, dated 2024).
# Conditions: buffering pH range
row,Compound,pH range
1,CC(=O)O [Acetic Acid],4-6
2,O=C(O)CC(O)(CC(=O)O)C(=O)O [Citric Acid],3-7
3,CC(O)C(=O)O (stereo not shown) [Lactic Acid],3-4.5
4,O=P(O)(O)O [Sodium Phosphate],8-8
